# Assay results: PubChem BioAssay (NCI)
#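 Results reflect a 48-hour exposure of cells in 96-well plates to compound at five concentrations. Here, GI50 denotes the concentration required for 50% inhibition of growth. TGI denotes the concentration required for complete inhibition of growth.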
# What was measured:
# Test in all cases: DTP human tumour cell line panel, 48 h
# [1] = tested on: SF-295 CNS
# [2] = tested on: HT29 colon
# [3] = tested on: NCI-H23 lung
# [4] = tested on: TK-10 renal
# [5] = tested on: SNB-19 CNS
# [6] = tested on: MOLT-4 leukemia
# [7] = tested on: LOX IMVI melanoma
# [8] = tested on: SF-539 CNS
# [9] = tested on: UACC-62 melanoma
# [10] = tested on: NCI-H460 lung
# [11] = tested on: NCI/ADR-RES ovarian
# [12] = tested on: HCC-2998 colon
# [13] = tested on: CAKI-1 renal
# [14] = tested on: MDA-MB-435
# [15] = tested on: A549 NSCLC
# [16] = tested on: SK-MEL-2 melanoma
# [17] = tested on: HOP-92 NSCLC
# [18] = tested on: MCF7 breast
# [19] = tested on: PC-3 prostate
# [20] = tested on: NCI-H522 lung
# [21] = tested on: IGROV1 ovarian
# [22] = tested on: EKVX NSCLC
# [23] = tested on: COLO 205 colon
# [24] = tested on: HS 578T breast
# [25] = tested on: M14 melanoma
# [26] = tested on: U251 CNS
# [27] = tested on: RXF 393 renal
# [28] = tested on: SK-MEL-5 melanoma
# [29] = tested on: MDA-MB-231 breast
# [30] = tested on: SK-MEL-28 melanoma
# [31] = tested on: SW-620 colon
# [32] = tested on: K-562 leukemia
# [33] = tested on: T-47D breast
# [34] = tested on: ACHN renal
# [35] = tested on: SF-268 CNS
# [36] = tested on: OVCAR-8 ovarian
# [37] = tested on: HOP-62 NSCLC
# [38] = tested on: HL-60(TB) leukemia
# [39] = tested on: NCI-H226 lung
# [40] = tested on: DU-145 prostate
# [41] = tested on: HCT-15 colon
# [42] = tested on: OVCAR-3 ovarian
# [43] = tested on: UACC-257 melanoma
# [44] = tested on: OVCAR-5 ovarian
# [45] = tested on: SN12C renal
# [46] = tested on: UO-31 renal
# [47] = tested on: 786-0 renal
# [48] = tested on: KM12 colon
compound,measurement,setting,value
COc1cc(/C=C2\C[C@H]3[C@@H]4CC=C5C[C@@H](OC(C)=O)CC[C@]5(C)[C@H]4CC[C@]3(C)[C@H]2OC(C)=O)ccc1OCCN1CCCCC1,GI50,[1],9.57 µM
same,TGI,[1],24.1 µM
same,GI50,[2],23.2 µM
same,TGI,[2],> 50 µM
same,GI50,[3],> 50 µM
same,TGI,[3],> 50 µM
same,GI50,[4],10.5 µM
same,TGI,[4],19.1 µM
same,GI50,[5],46.2 µM
same,TGI,[5],> 50 µM
same,GI50,[6],> 50 µM
same,TGI,[6],> 50 µM
same,GI50,[7],9.63 µM
same,TGI,[7],18.5 µM
same,GI50,[8],9.56 µM
same,TGI,[8],20.6 µM
same,GI50,[9],8.14 µM
same,TGI,[9],15 µM
same,GI50,[10],15.8 µM
same,TGI,[10],> 50 µM
same,GI50,[11],> 50 µM
same,TGI,[11],> 50 µM
same,GI50,[12],10.9 µM
same,TGI,[12],19.9 µM
same,GI50,[13],15.6 µM
same,TGI,[13],> 50 µM
same,GI50,[14],14.4 µM
same,TGI,[14],44.4 µM
same,GI50,[15],19.3 µM
same,TGI,[15],> 50 µM
same,GI50,[16],20.1 µM
same,TGI,[16],> 50 µM
same,GI50,[17],27.6 µM
same,TGI,[17],> 50 µM
same,GI50,[18],10.6 µM
same,TGI,[18],25 µM
same,GI50,[19],24.7 µM
same,TGI,[19],> 50 µM
same,GI50,[20],> 50 µM
same,TGI,[20],> 50 µM
same,GI50,[21],40 µM
same,TGI,[21],> 50 µM
same,GI50,[22],> 50 µM
same,TGI,[22],> 50 µM
same,GI50,[23],16.3 µM
same,TGI,[23],> 50 µM
same,GI50,[24],12.1 µM
same,TGI,[24],42.8 µM
same,GI50,[25],2.46 µM
same,TGI,[25],10 µM
same,GI50,[26],8.76 µM
same,TGI,[26],16.5 µM
same,GI50,[27],6.94 µM
same,TGI,[27],18.8 µM
same,GI50,[28],8.16 µM
same,TGI,[28],15.5 µM
same,GI50,[29],11 µM
same,TGI,[29],25.4 µM
same,GI50,[30],22.5 µM
same,TGI,[30],> 50 µM
same,GI50,[31],11.2 µM
same,TGI,[31],> 50 µM
same,GI50,[32],12.8 µM
same,TGI,[32],43.2 µM
same,GI50,[33],> 50 µM
same,TGI,[33],> 50 µM
same,GI50,[34],9.28 µM
same,TGI,[34],16.8 µM
same,GI50,[35],35.7 µM
same,TGI,[35],> 50 µM
same,GI50,[36],13 µM
same,TGI,[36],> 50 µM
same,GI50,[37],8.96 µM
same,TGI,[37],27.1 µM
same,GI50,[38],40.7 µM
same,TGI,[38],> 50 µM
same,GI50,[39],> 50 µM
same,TGI,[39],> 50 µM
same,GI50,[40],15.2 µM
same,TGI,[40],44.4 µM
same,GI50,[41],7.59 µM
same,TGI,[41],15.8 µM
same,GI50,[42],18.5 µM
same,TGI,[42],> 50 µM
same,GI50,[43],5.77 µM
same,TGI,[43],13.6 µM
same,GI50,[44],23.4 µM
same,TGI,[44],> 50 µM
same,GI50,[45],10.8 µM
same,TGI,[45],27.1 µM
same,GI50,[46],11.1 µM
same,TGI,[46],29.1 µM
same,GI50,[47],12.3 µM
same,TGI,[47],21.3 µM
same,GI50,[48],14.4 µM
same,TGI,[48],46.1 µM
